Measured values reported in patent US8206756B2, “Herbal composition for inflammatory disorders” (Piramal Life Sciences Limited, priority 2005, dated 2012).

Key:
[1] = tested on: THP-1 cell adhesion to HUVECs; test: Adhesion of THP-1 mononuclear cells to HUVEC monolayers; type: cell-based, human; details: for Fluorescence Intensity: TNF-α 1 ng/ml; for Fold of control: unstimulated DMSO control = 1, stimulated = 18
Method: Adhesion studies were performed with the promonocytic cell line THP-1, which has been established as a useful model for monocytes in adhesion studies in Circ. Res., 97, 236-243, 2005, with modifications. THP-1 cells were washed twice with labeling medium (M200 plus LSGS). THP-1 cells (6×10^5 cells per ml) were labeled with 10 μg/ml bis-carboxyethyl-carboxyfluorescein acetoxymethylester (a fluorescent probe, BCECF-AM; Sigma) for 30 min at RT. After quenching with 0.1% BSA, the pellet was resuspended in labeling medium. To evaluate monocyte adhesion, HUVEC monolayers treated with TNF-α (1 ng/ml) in the presence or absence of various concentrations of test sample. The media was removed, washed and labeled-THP-1-cells were added to the wells (6×10^4 cells per well) and incubated for 10 minutes at RT in the dark. After co incubation, the wells were washed, filled with lysis buffer (0.1% Triton-X in 1.5 M Tris buffer) and incubated for 30 min. The fluorescence was measured using a fluorescent reader (PolarStar Optima, BMG Labtech) at an excitation peak of 485 nm and an emission peak of 520 nm. Values are means±SEM, representing fluorescent adhesion data. BAY 11-7082 [(E)-3-(4-methylphenylsulfonyl)-2-propenenitrile] was used as a standard and DMSO as vehicle control.

[2] = tested on: atherosclerosis / hyperlipidemia; test: Atherosclerosis model of high fat-fed hyperlipidemic hamsters; type: in vivo, Golden Syrian Hamsters; details: Fenofibrate 100 mpk, extract 200 mpk
Method: The treatment effects of the extract of example 1 on prevention of aortic lesion were determined by using atherosclerosis model of high fat-fed hyperlipidemic hamster.
Details of animals used: Male Golden Syrian Hamsters, which were 7-8 weeks old and weighed approximately 100 g to 120 g, were used for the experiment. Hamsters were randomly selected for treatment group placement. Animals were earmarked using a paint marker. Animals were separated and housed in groups of three in appropriately sized solid-bottom cages. Room lighting conditions were adjusted to 12 hour light and 12 hour dark cycle. During the acclimation period the diet was Purina 5001 (Research Diets, Inc. New Brunswick, N.J., USA). A high-fat diet consisting of Purina 5001 plus 10% coconut oil, 10% corn oil, 0.5% cholesterol, and 5% fructose was administered beginning on day 1 and continued throughout the duration of study. Hamsters were provided purified tap water throughout the study.
For pretreatment lipid values, animals were bled by retro-orbital puncture following an 18-hour fast and ˜1 ml of blood was collected in a 3 ml Vacutainer® tube containing K3 EDTA. Each blood sample was centrifuged (4000 rpm, 20 min, 4° C. using an Eppendorf C5804R) and the plasma separated and was analyzed for determination of triglyceride (TG), total cholesterol, high density cholesterol (HDL) and low density cholesterol (LDL).
Preparation of dosing solution: The extract of example 1 was dissolved in vehicle [CMC (0.5%)/Tween 80 (2%)] for 200 mpk (5 ml/kg BW) dosing. The resulting solution was a fine suspension after 12-15 minutes gentle sonication. Aliquots were prepared (˜2.3 ml/vial) and stored in a freezer and were used daily.
All groups of animals were dosed orally either with vehicle or with extract of example 1 (200 mpk) for 58 days. […]
On day 58, following the 16-18 hour fasting period, animals were bled by retro-orbital puncture and ˜1 ml of blood was collected in a 3 ml Vacutainer® tube containing K3 EDTA. Each blood sample was centrifuged (4000 rpm, 20 min, 4° C. using an Eppendorf C5804R) and the plasma sample was analyzed for TG, total cholesterol, HDL and LDL.
Necropsy: On day 59, the animals were fasted for 4 h and euthanized under carbon dioxide and plasma samples were collected via cardiac puncture for lipid profiling and other analyses. […] The heart, aortic arch, thoracic and abdominal aorta up to femoral bifurcation were removed and placed in 10% formalin for en face lesion quantification.
En face analysis: Connective fascia and adventia surrounding the thoracic aorta were removed as much as possible. […] Quantitation was performed using a Nikon SMZ-U microscope with an Optronics Camera head recording the photographs. […] Quantitation was done based on percentage lesion per area.

[3] = tested on: TNF-α; test: LPS-induced TNF-α production in hPBMCs (ELISA); type: cell-based; details: Homo sapiens, LPS 1 μg/ml, 5 h, hPBMC
Method: (§1) Primary screening—Human peripheral blood mononuclear cells (hPBMCs). TNF-α production by lipopolysaccharides (LPS) in hPBMCs was measured according to the method described by Jansky, L. et al (Physiol. Res. 52: 593-598, (2003)). Blood was collected from healthy donors into Potassium EDTA vacutainer tubes (BD vacutainer). The PBMCs were isolated using gradient centrifugation in Histopaque-1077 solution (Sigma). Isolated PBMCs were suspended in RPMI 1640 culture medium (Gibco BRL, Pasley, UK) containing 10% fetal bovine serum (FBS) (Hyclone, Utah, USA), 100 U/ml penicillin (Sigma Chemical Co. St Louis, Mo.) and 100 μg/ml streptomycin (Sigma Chemical Co. St Louis, Mo.). The cell concentration was adjusted to 1×10^6 cells/ml. The viability as determined by trypan blue dye exclusion was uniformly ≧98%. The cell suspension (100 μl) was added to the wells of a 96-well culture plate. Following cell plating, 79 μl of the culture medium and 1 μl of eight different concentrations of the test samples (final concentration 0.03, 0.1, 0.3, 1, 3, 10, 30, 100 μg/ml) dissolved in DMSO (dimethylsulfoxide, Sigma, Mo., USA) were added to the cells. The final concentration of DMSO was adjusted to 0.5%. The vehicle (0.5% DMSO) was used as control. Rolipram (100, 300 μM) was used as a standard. The plates were incubated for 30 min at 37° C. in an atmosphere of 5% CO2. Finally, 20 μl (10 μg/ml) per well of LPS, (Escherchia coli 0127:B8, Sigma Chemical Co., St. Louis, Mo.) was added, for a final concentration of 1 μg/ml. […] The % inhibition was recorded. Percent cytotoxicity of the test samples compared to control was evaluated.
The effect of the plant extract on the proinflammatory cytokines: TNF-α, interleukin-1β (IL-1β), interleukin-6 (IL-6) and interleukin-8 (IL-8) was measured using the supernatants generated in the primary screening assay. […]
The effect of the Compound 1, on the proinflammatory cytokines: TNF-α interleukin-1β (IL-1β), interleukin-6 (IL-6) and interleukin-8 (IL-8) was measured using the supernatants generated in the primary screening assay. […]

[4] = tested on: hPBMCs; test: Cellular viability test (MTS) in hPBMCs; type: cell-based, human; details: hPBMC
Method: as §1, with “standard.” for “standard. The plates were incubated for 30 min at 37° C. in an atmosphere of 5% CO2. Finally, 20 μl (10 μg/ml) per well of LPS, (Escherchia coli 0127:B8, Sigma Chemical Co., St. Louis, Mo.) was added, for a final concentration of 1 μg/ml.”

[5] = tested on: DSS-induced colitis; test: DSS-induced murine model of acute colitis; type: in vivo, C57BL/6J mice; details: 15 mg/kg injected from day 5 onwards till death

With `Cc1ccc(S(=O)(=O)/C=C/C#N)cc1` [BAY 11-7082, (E)-3-(4-methylphenylsulfonyl)-2-propenenitrile, reference compound] the “Fluorescence Intensity” value ([1]; 0.5 μM) was 18442, the Fold of control ([1]; 0.5 μM) was 10 and the “Fluorescence Intensity” value ([1]; 1 μM) was 14271. It also gave a Fold of control ([1]; 1 μM) of 8.
`CC(C)OC(=O)C(C)(C)Oc1ccc(C(=O)c2ccc(Cl)cc2)cc1` [Fenofibrate] was tested, and the “Plasma triglycerides level, Mean” value ([2]; day 58, oral, vehicle mean 2321.3) was 449.2, the “Plasma triglycerides level, % Change” value ([2]; day 58, versus vehicle) was −81% and the “Atherosclerosis progression (percentage lesion per area, en face aorta), Mean” value ([2]; day 59, vehicle mean 0.5025) was 0.0834. The “Atherosclerosis progression, % Change” value ([2]; versus vehicle) was −84%.
In the case of `COc1ccc(C2CNC(=O)C2)cc1OC1CCCC1` (stereo not shown) [Rolipram], the inhibition at 100 µM ([3]; 100 μM) is reported as 84%, the inhibition at 300 µM ([3]; 300 μM) is reported as 90% and the “% Toxicity at 5 h” value ([4]; 100 μM) is reported as 2%. The “% Toxicity at 5 h” value ([4]; 300 μM) was 21%.
For “infliximab: Monoclonal antibody drug (Centocor), injected 15 mg/kg in the DSS colitis model”, the “Survival against DSS-induced colitic death” value [5] was “all animals in this group were dead”.
